Reference: the RepoRT retention time repository (doi:10.1016/j.jhazmat.2019.121712)

assay: Thermo Scientific Acclaim RSLC 120 C18, 100 × 2.1 mm, 2.2 µm, 30 °C; A: 90% water + 10% methanol + 0.01% formic acid + 5 mM ammonium formate; B: methanol + 0.01% formic acid + 5 mM ammonium formate; gradient (min/%B) 0.1/1 3/39 14/99.9 16/99.9; conditions: stereoisomer not certain

Structure (SMILES)	LC retention time [min]
O=C(O)c1ccccc1C(=O)Nc1ccc(S(=O)(=O)Nc2nccs2)cc1	4.66
COC12CCC3(CC1C(C)(O)C(C)(C)C)C1Cc4ccc(O)c5c4C3(CCN1CC1CC1)C2O5 (stereo not drawn)	7.96
CCCCc1ncc(C=C(Cc2cccs2)C(=O)O)n1Cc1ccc(C(=O)O)cc1	7.49
c1ccc(C(c2ccccc2)C2CCCCN2)cc1 (stereo not drawn)	6.3
CCCCCCCCCCCC(CC1OC(=O)C1CCCCCC)OC(=O)C(CC(C)C)NC=O (stereo not drawn)	14.6
Oc1ccc2ccccc2c1N=Nc1ccccc1	13.6
COP(=S)(OC)Oc1ccc([N+](=O)[O-])c(C)c1	9.92
COC(=O)c1ccccc1S(=O)(=O)NC(=O)Nc1nc(C)cc(C)n1	6.92
CC(C)NCC(O)COc1ccc(CC(=O)O)cc1 (stereo not drawn)	3.93
Cc1ccccc1C(=O)Nc1cccc(OC(C)C)c1	9.62
CCCCn1c(O)c(C(=O)c2cccc3ccccc23)c2ccccc21	13.5
CCCCCn1nc(C(=O)Nc2cccc3ccccc23)c2ccccc21	13
NC(=O)N1c2ccccc2CC(=O)c2ccccc21	6.46
CC#CC1(O)CCC2C3CCC4=CC(=O)CCC4=C3C(c3ccc(N(C)C)cc3)CC21C (stereo not drawn)	11.1
CN(C)CCN1C(=O)c2ccccc2N(C)c2ccccc21	5.49
CCOC(=O)C(CCc1ccccc1)NC(C)C(=O)N1CC2(CC1C(=O)O)SCCS2 (stereo not drawn)	8.23
CC(C)(C)NCC(O)COc1cccc2c1CCC(=O)N2 (stereo not drawn)	3.91
O=C(c1cccc2ccccc12)c1cn(CCCCO)c2ccccc12	9.56
CNC(=O)ON=CC(C)(C)SC	6.17
CNCC(C)CN1c2ccccc2CCc2ccccc21 (stereo not drawn)	8.49
C(=Cc1ccccc1)CN1CCN(C(c2ccccc2)c2ccccc2)CC1	9.86
O=C(NC1CCN(CCc2c[nH]c3ccccc23)CC1)c1ccccc1	5.37
CCCCCn1c(O)c(C(=O)c2cccc3ccccc23)c2ccccc21	14
CCCc1nn(C)c2c(=O)[nH]c(-c3cc(C(=O)CN4CCN(CC)C(=O)C4)ccc3OCC)nc12	9.09
Cc1ccc(C(=CCN2CCCC2)c2ccccn2)cc1	6.28
CCC(Cc1ccc2c(c1)OCO2)NC (stereo not drawn)	4.66

Structure (SMILES)	LC retention time [min]
CCN(CC)c1nc(C)cc(OP(=S)(OC)OC)n1	11.3
COc1cc(NS(=O)(=O)c2ccc(N)cc2)ncn1	4.75
CCCCCn1cc(C(=O)c2cccc3ccccc23)c2cccc(O)c21	11.8
CC(C)C1(NC(=O)C2CC3c4cccc5[nH]cc(c45)CC3N(C)C2)OC2(O)C3CCCN3C(=O)C(Cc3ccccc3)N2C1=O (stereo not drawn)	8.17
CNCCCC12CCC(c3ccccc31)c1ccccc12	8.08
CCCCn1cc(C(=O)c2cccc3ccccc23)c2cccc(O)c21	11.2
CCCCCn1cc(C(=O)Cc2ccccc2C)c2ccccc21	12.2
CCCC1CC(C(=O)NC(C(C)O)C2OC(SC)C(O)C(O)C2O)N(C)C1 (stereo not drawn)	4.08
CC1CCC2N(C1)CC1C3CC4C(CC(O)C5CC(O)CCC54C)C3CCC1C2(C)O (stereo not drawn)	6.44
C[N+]1([O-])CCN2c3ccccc3Cc3ccccc3C2C1 (stereo not drawn)	7.63
O=C1CN=C(c2ccccc2)c2cc([N+](=O)[O-])ccc2N1	7.79
CCC1(c2cccc(O)c2)CCCCN(C)C1 (stereo not drawn)	4.74
CCCCOC(=O)c1ccccc1C(=O)OCc1ccccc1	12.4
C=CCN(CC=C)CCc1c[nH]c2ccc(OC)cc12	4.89
CCSCCSP(=S)(OC)OC	10.2
CCN(CCCCOC(=O)c1ccc(OC)c(OC)c1)C(C)Cc1ccc(OC)cc1 (stereo not drawn)	6.79
CCC(=O)OC(Cc1ccccc1)(c1ccccc1)C(C)CN(C)C (stereo not drawn)	7.73
NC1Cc2cc3c(cc2C1)OCO3	3.81
CCc1cccc2c3c([nH]c12)C(CC)(CC(=O)O)OCC3 (stereo not drawn)	10.6
CNC(=O)N(C)c1nnc(C(C)(C)C)s1	7.25
O=C1OC(=O)c2ccccc21	9.58
CN(Cc1cnc2nc(N)nc(N)c2n1)c1ccc(C(=O)NC(CCC(=O)O)C(=O)O)cc1 (stereo not drawn)	3.96
CCCCCCOC(=O)NC(=N)c1ccc(NCc2nc3cc(C(=O)N(CCC(=O)OCC)c4ccccn4)ccc3n2C)cc1	9.29
CC(C)(C)NCC(O)COc1nsnc1N1CCOCC1 (stereo not drawn)	4.88
C=CCCCn1cc(C(=O)c2cccc3ccccc23)c2ccccc21	12
C=C(C)C1Cc2c(ccc3c2OC2COc4cc(OC)c(OC)cc4C2C3=O)O1 (stereo not drawn)	10.5

Structure (SMILES)	LC retention time [min]
CNS(=O)(=O)Cc1ccc2[nH]cc(CCN(C)C)c2c1	3.43
CC(Cc1ccc2c(c1)OCO2)N(C)C (stereo not drawn)	4.08
CCc1cc2c(cc1CC)CC(NCC(O)c1ccc(O)c3[nH]c(=O)ccc13)C2 (stereo not drawn)	7.9
C=CCC(C(=O)NC(N)=O)C(C)C (stereo not drawn)	6.94
Cc1cc(C2CC2)nc(Nc2ccccc2)n1	11
CCc1cc(OC)c(CCN)cc1OC	6.48
CCNc1nc(NC(C)(C)C)nc(OC)n1	9.16
COP(=S)(OC)Oc1ccc(S(=O)(=O)N(C)C)cc1	7.99
CN1CCC(N(Cc2ccccc2)c2ccccc2)CC1	7.77
CC(C)N(Cc1ccccc1)C(=O)C(C)(C)C	10.2
CC=CCC1=C(C)C(OC(=O)C2C(C=C(C)C)C2(C)C)CC1=O (stereo not drawn)	12.9
c1ccc(C2CN3CCSC3=N2)cc1 (stereo not drawn)	3.68
CCCCC(=O)N(Cc1ccc(-c2ccccc2-c2nn[nH]n2)cc1)C(C(=O)O)C(C)C (stereo not drawn)	9.21
CCCCOC(=O)N(C)SN(C)C(=O)Oc1cccc2c1OC(C)(C)C2	12.1
CCOP(=S)(Oc1ccc([N+](=O)[O-])cc1)c1ccccc1 (stereo not drawn)	11.7
Cc1cc(C)nc(NS(=O)(=O)c2ccc(N)cc2)n1	4.31
CN1CC(=O)N2C(Cc3c([nH]c4ccccc34)C2c2ccc3c(c2)OCO3)C1=O (stereo not drawn)	8.26
CCNC(=O)C(C)OC(=O)Nc1ccccc1 (stereo not drawn)	6.58
CC12CCC(=O)C=C1C=CC1C2CCC2(C)C1CCC21CCC(=O)O1 (stereo not drawn)	9.77
Cc1ccc(C(=O)c2ccc(CC(=O)O)n2C)cc1	7.89
CC(O)CN1CCN(CC(=O)O)CCN(CC(=O)O)CCN(CC(=O)O)CC1 (stereo not drawn)	1.31
CN(C)CC(c1ccc(O)cc1)C1(O)CCCCC1 (stereo not drawn)	4.76
CCCCCn1cc(C(=O)NC23CC4CC(CC(C4)C2)C3)c2ccccc21	13.2
CC(=O)N(C)N(C(=O)C(=O)N(C)C)c1ccccc1	5.06
CCC1=C(C)CN(C(=O)NCCc2ccc(S(=O)(=O)NC(=O)NC3CCC(C)CC3)cc2)C1=O (stereo not drawn)	10.7
CNC(C)Cc1ccccc1 (stereo not drawn)	4.21
